Literature values in patent publication US20210128584A1, “USE OF GLUCOCORTICOID RECEPTOR ANTAGONISTS FOR THE TREATMENT OF AMYOTROPHIC LATERAL SCLEROSIS” (Corcept Therapeutics Incorporated, priority 2008, published 2021).

fraction of the daily dose excreted in the urine: less than 0.5%
Structure (SMILES): CC#C[C@]1(O)CC[C@H]2[C@@H]3CCC4=CC(=O)CCC4=C3[C@@H](c3ccc(N(C)C)cc3)C[C@@]21C [Mifepristone, 17β-hydroxy-11β-(4-dimethyl-aminophenyl)-17α-(1-propynyl)-estra-4,9-dien-3-one]
